Measurements: patent publication US20260327234A1, “NOVEL COMPOUNDS AS CYP11A1 INHIBITORS AND METHODS OF USE THEREOF” (Shenzhen Ionova Life Science Co., Ltd., priority 2023, published 2026)

Experiments:
CYP11A1 = target: T1, CYP11A1 (Homo sapiens, UniProt P05108); test: H295R Steroid Biosynthesis Inhibition Assay - inhibition of pregnenolone (P) production catalyzed by CYP11A1 in NCI-H295R cells; format: cell-based; conditions: 48 h, LC-MS/MS, read-out: Inh. of P IC50
T1 construct: measuring the cellular production of pregnenolone (P) catalyzed by CYP11A1; host or cells: NCI-H295R
T1 sequence (P05108 40-521): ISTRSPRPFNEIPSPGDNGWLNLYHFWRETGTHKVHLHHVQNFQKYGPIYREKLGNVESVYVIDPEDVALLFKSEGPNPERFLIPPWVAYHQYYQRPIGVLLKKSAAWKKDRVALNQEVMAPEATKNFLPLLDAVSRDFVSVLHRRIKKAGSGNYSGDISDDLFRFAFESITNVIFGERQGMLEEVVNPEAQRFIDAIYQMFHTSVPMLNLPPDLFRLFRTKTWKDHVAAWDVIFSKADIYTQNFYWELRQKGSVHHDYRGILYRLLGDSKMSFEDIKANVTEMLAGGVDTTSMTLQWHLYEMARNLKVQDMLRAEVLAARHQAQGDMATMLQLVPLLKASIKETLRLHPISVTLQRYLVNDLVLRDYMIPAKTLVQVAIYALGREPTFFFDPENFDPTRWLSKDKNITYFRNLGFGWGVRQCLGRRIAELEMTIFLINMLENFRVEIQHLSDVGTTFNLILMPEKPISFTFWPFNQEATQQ
Experimental: (§1) Steroid Biosynthesis Inhibition by test compounds in NCI-H295R cells (ATCC) was studied by measuring the cellular production of pregnenolone (P) catalyzed by CYP11A1 and the downstream steroid, testosterone (T). Cells were cultured in Dulbecco's modified eagle's medium F12 (DMEM/F12) with phenol red (Gibco, Cat. No. 11330032) supplemented with 2% UltroserG (Pall, Cat. No. 15950-017, USA), 1% ITS-Premix and 1% penicillin and streptomycin (Hyclone, Cat. No. SV30010, USA). Prior to the assay, cells were thawed and passed 4 times. The maximal passage number used for the assay was 10. For this assay, DMEM/F12 without phenol red supplemented with 10% charcoal-stripped fetal bovine serum (VivaCell, Cat. No. C3830-0500, USA) were used. In a 96-well plate, 60,000 cells/well were plated (90 μL/well) and incubated for 24 h. Test compounds, diluted in a serial dilution ranging from 1000 nM to 0.15 nM in the assay medium, were added to the plate. After 48 h of incubation, solution from each well were collected and transferred to individual 1.5 mL centrifuge tubes, and then 5 ng/mL deuterated testosterone (D3-testosterone) and 50 ng/mL deuterated pregnenolone (D4-pregnenolone) in 200 μL acetonitrile were added. After vigorously mixing for 5 min, the mixture was centrifuged at 12,700 rpm for 15 min. An aliquot of 250 μL supernatant was collected and dried under N2 stream. After addition of 150 μL Methanol:water (1:1, v/v) to the dried product, 50 μL sample of this solution was injected into the LC-MS/MS system for analysis.
(§2) The half-maximal inhibitory concentration (IC50) for steroid biosynthesis inhibition was determined by curve-fitting with the 4-variable inhibitory dose response equation using GraphPad Prism software.
(§3) Testosterone and pregnenolone were analyzed using Shimadzu LC30AD HPLC system (Shimadzu, Kyoto, Japan) coupled with AB SCIEX Qtrap 5500 triple quadrupole mass spectrometer (AB Sciex, Framingham, MA, USA) via ESI interface in the positive ionization mode. An ACQUITY UPLC BEH Shield RP18 column (1.7 μm, 2.1×50 mm, Milford, MA, USA) maintained at 40° C. was used to separate analytes and IS form the sample matrix.
(§4) The mobile phase was a mixture of 10 mM ammonium acetate in water containing 0.2% formic acid (A) and methanol containing 0.2% formic acid (B) at a flow rate of 0.6 mL/min. The gradient program was set as follows: from 0 min to 0.5 min, 60% B; from 0.5 min to 3.5 min, 90% B; from 3.5 min to 4.5 min, 90% B; from 4.51 min to 5.0 min, 60% B. The injection volume was […].
(§5) The MS/MS parameters were set as follows: ion spray voltage, 5500 V; curtain gas, 35 psi; Gas 1, 55 psi; Gas 2: 55 psi; temperature, […]. The optimized multiple reaction monitoring (MRM) fragmentation transitions and MS parameters of each analyte are summarized in Table 1.

[1] = target: T2, testosterone (T) production in NCI-H295R cells (Homo sapiens, UniProt P05108); test: H295R Steroid Biosynthesis Inhibition Assay - inhibition of testosterone (T) production in NCI-H295R cells; format: cell-based; conditions: 48 h, LC-MS/MS, read-out: Inh. of T IC50
T2 construct: testosterone measured by LC-MS/MS as downstream steroid
T2 sequence (P05108 40-521): T1 sequence (P05108 40-521)
Experimental: as §1, §2, §3, §4, §5

| IC50 (CYP11A1) [µM] | IC50 [1] [µM] | Compound |
| --- | --- | --- |
| ≤ 0.04 | ≤ 0.04 | NC(=O)[C@H]1CC[C@H](c2cc3oc(CN4Cc5ccccc5C4)cc(=O)c3o2)CC1 [Compound 46] |
| ≤ 0.04 | ≤ 0.04 | CN(C)C(=O)[C@H]1CC[C@H](c2cc3oc(CN4Cc5ccccc5C4)cc(=O)c3o2)CC1 [Compound 47] |
| ≤ 0.04 | 0.041 to 0.1 | N#C[C@H]1CC[C@H](c2cc3oc(CN4Cc5ccccc5C4)cc(=O)c3o2)CC1 [Compound 48] |
| ≤ 0.04 | ≤ 0.04 | CS(=O)(=O)c1ccc(-c2cc3oc(CN4Cc5ccccc5C4)cc(=O)c3o2)cc1 [Compound 49] |
| ≥ 0.1 | ≥ 0.101 | CP(C)(=O)c1ccc(-c2cc3oc(CN4Cc5ccccc5C4)cc(=O)c3o2)cc1 [Compound 50] |
| ≤ 0.04 | ≤ 0.04 | CNS(=O)(=O)c1ccc(-c2cc3oc(CN4Cc5ccccc5C4)cc(=O)c3o2)cc1 [Compound 51] |
| ≤ 0.04 | ≤ 0.04 | CS(=O)(=O)Nc1ccc(-c2cc3oc(CN4Cc5ccccc5C4)cc(=O)c3o2)cc1 [Compound 52] |
| 0.04 to 0.1 | 0.041 to 0.1 | CS(=O)(=O)N1C[C@@H]2[C@H](C1)[C@H]2c1cc2oc(CN3CCn4cccc4C3)cc(=O)c2o1 [Compound 53] |
| ≤ 0.04 | 0.041 to 0.1 | O=c1cc(CN2CCn3cccc3C2)oc2cc([C@H]3CC[C@H](O)CC3)oc12 [Compound 54] |
| ≤ 0.04 | ≤ 0.04 | CS(=O)(=O)N1CCC(c2cnc3cc(CN4Cc5ccccc5C4)ccc3n2)CC1 [Compound 55, 6-(isoindolin-2-ylmethyl)-2-(1-(methylsulfonyl)piperidin-4-yl)quinoxaline] |
| ≤ 0.04 | ≤ 0.04 | CS(=O)(=O)N1C[C@@H]2[C@H](C1)[C@H]2c1ccc2cc(CN3Cc4ccccc4C3)ccc2n1 [Compound 56, 6-(isoindolin-2-ylmethyl)-2-((1R,5S,6r)-3-(methylsulfonyl)-3-azabicyclo[3.1.0]hexan-6-yl)quinoline] |
| ≤ 0.04 | ≤ 0.04 | CS(=O)(=O)N1CCC(c2ccc3oc(CN4Cc5ccccc5C4)cc(=O)c3c2)CC1 [Compound 57] |
| ≤ 0.04 | ≤ 0.04 | CS(=O)(=O)N1CCC(c2ccc3oc(CN4Cc5ccccc5C4)cc(=O)c3n2)CC1 [Compound 58] |
| ≤ 0.04 | ≤ 0.04 | CS(=O)(=O)N1CCC(c2ccc3nc(CN4Cc5ccccc5C4)cc(=O)n3c2)CC1 [Compound 59] |
| ≤ 0.04 | ≤ 0.04 | CS(=O)(=O)N1CCC(c2cc(=O)c3cc(CN4Cc5ccccc5C4)ccc3o2)CC1 [Compound 60] |
| ≥ 0.1 | ≥ 0.101 | CS(=O)(=O)N1CCC(c2cc(=O)c3nc(CN4Cc5ccccc5C4)ccc3o2)CC1 [Compound 61] |
| 0.04 to 0.1 | ≥ 0.101 | CS(=O)(=O)N1CCC(c2cc(=O)n3cc(CN4Cc5ccccc5C4)ccc3n2)CC1 [Compound 62] |
| ≤ 0.04 | ≤ 0.04 | Cn1c(C2CCN(S(C)(=O)=O)CC2)nc2ccc(CN3Cc4ccccc4C3)cc2c1=O [Compound 63] |
| ≤ 0.04 | 0.041 to 0.1 | CS(=O)(=O)N1CCC(N2CCc3cc(CN4Cc5ccccc5C4)ccc3C2=O)CC1 [Compound 64] |
| ≤ 0.04 | ≤ 0.04 | CS(=O)(=O)N1CC=C(c2coc3cc(CN4Cc5ccccc5C4)ccc3c2=O)CC1 [Compound 65] |
| ≤ 0.04 | ≤ 0.04 | CS(=O)(=O)N1CCC(c2ccc3cc(CN4Cc5ccccc5C4)ccc3c2)CC1 [Compound 66] |
| ≤ 0.04 | ≤ 0.04 | CS(=O)(=O)N1CCC(c2ccc3cc(CN4Cc5ccccc5C4)cnc3c2)CC1 [Compound 67] |
| ≤ 0.04 | ≤ 0.04 | CS(=O)(=O)N1CCC(c2ccc3cc(CN4Cc5ccccc5C4)ncc3c2)CC1 [Compound 68] |

| IC50 (CYP11A1) [µM] | IC50 [1] [µM] | Compound |
| --- | --- | --- |
| ≤ 0.04 | ≤ 0.04 | CS(=O)(=O)N1CCC(c2cnc3cc(CN4Cc5ccccc5C4)ccc3c2)CC1 [Compound 69] |
| ≤ 0.04 | ≤ 0.04 | CS(=O)(=O)N1CCC(c2ccc3cc(CN4Cc5ccccc5C4)ccc3n2)CC1 [Compound 71] |
| ≤ 0.04 | ≤ 0.04 | CS(=O)(=O)N1CCC(c2ccc3cc(CN4Cc5ccc(F)cc5C4)ccc3n2)CC1 [Compound 72] |
| ≤ 0.04 | ≤ 0.04 | COc1ccc2c(c1)CN(Cc1ccc3nc(C4CCN(S(C)(=O)=O)CC4)ccc3c1)C2 [Compound 73] |
| ≥ 0.1 | ≥ 0.101 | OC1CCN(c2ccc3cc(CN4Cc5ccccc5C4)ccc3n2)CC1 [Compound 74] |
| ≤ 0.04 | ≤ 0.04 | CS(=O)(=O)N1CC2(CC(c3ccc4cc(CN5Cc6ccccc6C5)ccc4n3)C2)C1 [Compound 75] |
| 0.04 to 0.1 | ≥ 0.101 | CS(=O)(=O)N1CCC(c2ccc3cc(CN4CCn5cccc5C4)ccc3n2)CC1 [Compound 76] |
| ≤ 0.04 | ≤ 0.04 | CS(=O)(=O)N1CCC(c2cc(Cl)c3cc(CN4Cc5ccccc5C4)ccc3n2)CC1 [Compound 77] |
| ≤ 0.04 | ≤ 0.04 | CS(=O)(=O)N1CCC(c2ccc3cc(CN4Cc5ccccc5C4)cnc3n2)CC1 [Compound 78] |
| ≤ 0.04 | ≤ 0.04 | CS(=O)(=O)N1CCC(c2ccc3nc(CN4Cc5ccccc5C4)ccc3n2)CC1 [Compound 79] |
| ≤ 0.04 | ≤ 0.04 | CS(=O)(=O)N1CCC(c2cnc3cc(CN4Cc5ccccc5C4)cnc3c2)CC1 [Compound 80] |
| ≤ 0.04 | 0.041 to 0.1 | CS(=O)(=O)N1CC=C(c2ccc3nc(CN4Cc5ccccc5C4)cnc3c2)CC1 [Compound 81] |
| ≤ 0.04 | 0.041 to 0.1 | CS(=O)(=O)N1CCC(c2ncc3cc(CN4Cc5ccccc5C4)ccc3n2)CC1 [Compound 82] |
| ≤ 0.04 | ≤ 0.04 | Cc1nc(C2CCN(S(C)(=O)=O)CC2)nc2ccc(CN3Cc4ccccc4C3)cc12 [Compound 83] |
| ≥ 0.1 | ≥ 0.101 | Cc1nc(C2CCN(S(C)(=O)=O)CC2)nc2ccc(CN3CCn4cccc4C3)cc12 [Compound 84] |
| ≤ 0.04 | ≤ 0.04 | COc1nc(C2CCN(S(C)(=O)=O)CC2)nc2ccc(CN3Cc4ccccc4C3)cc12 [Compound 85] |
| ≤ 0.04 | 0.041 to 0.1 | CS(=O)(=O)N1C[C@@H]2[C@H](C1)[C@H]2c1cnc2cc(CN3Cc4ccccc4C3)ccc2n1 [Compound 86] |
| ≤ 0.04 | ≤ 0.04 | CS(=O)(=O)N1CCC(c2cnc3cc(CN4Cc5ccc(F)cc5C4)ccc3n2)CC1 [Compound 87] |
| ≤ 0.04 | ≤ 0.04 | CS(=O)(=O)N1CCC(c2cnc3cc(CN4Cc5ccc(OC(F)F)cc5C4)ccc3n2)CC1 [Compound 89] |
| ≤ 0.04 | ≤ 0.04 | CS(=O)(=O)N1CCC(c2cnc3cc(CN4Cc5ccc(C(F)(F)F)cc5C4)ccc3n2)CC1 [Compound 90] |
| ≤ 0.04 | ≤ 0.04 | CCS(=O)(=O)N1CCC(c2cnc3cc(CN4Cc5ccccc5C4)ccc3n2)CC1 [Compound 91] |
| ≤ 0.04 | ≤ 0.04 | CCCS(=O)(=O)N1CCC(c2cnc3cc(CN4Cc5ccccc5C4)ccc3n2)CC1 [Compound 92] |
| ≤ 0.04 | ≤ 0.04 | CCCCS(=O)(=O)N1CCC(c2cnc3cc(CN4Cc5ccccc5C4)ccc3n2)CC1 [Compound 93] |
